Test results from US7851469B2, “Isoxazole-imidazole derivatives” (Hoffmann-La Roche Inc., priority 2007, dated 2010).

Molecular target: T1, GABA A receptor α5β3γ2 (hα5) (Homo sapiens, UniProt P18507+P31644)
T1 construct: expressed in transfected cells; host or cells: HEK293 (transiently transfected; membranes)
Assay: [3H]flumazenil competition binding assay, human GABA A α5 receptor
Settings: displacement of [3H]flumazenil (0.5 nM) from HEK293 cell membranes expressing α5β3γ2; means of two determinations
Protocol: Membrane Preparation and Binding Assay
The affinity of compounds at GABA A receptor subtypes was measured by competition for [3H]flumazenil (85 Ci/mmol; Roche) binding to HEK293 cells expressing rat (stably transfected) or human (transiently transfected) receptors of composition α1β3γ2, α2β3γ2, α3β3γ2 and α5β3γ2.
Cell pellets were suspended in Krebs-tris buffer (4.8 mM KCl, 1.2 mM CaCl2, 1.2 mM MgCl2, 120 mM NaCl, 15 mM Tris; pH 7.5; binding assay buffer), homogenized by polytron for ca. 20 sec on ice and centrifuged for 60 min at 4° C. (50000 g; Sorvall, rotor: SM24=20000 rpm). The cell pellets were resuspended in Krebs-tris buffer and homogenized by polytron for ca. 15 sec on ice. Protein was measured (Bradford method, Bio-Rad) and aliquots of 1 mL were prepared and stored at −80° C.
Radioligand binding assays were carried out in a volume of […] (96-well plates) which contained […] of cell membranes, [3H]flumazenil at a concentration of 1 nM for α1, α2, α3 subunits and 0.5 nM for α5 subunits and the test compound in the range of […]. Nonspecific binding was defined by 10^−5 M diazepam and typically represented less than 5% of the total binding. Assays were incubated to equilibrium for 1 hour at 4° C. and harvested onto GF/C uni-filters (Packard) by filtration using a Packard harvester and washing with ice-cold wash buffer (50 mM Tris; pH 7.5). After drying, filter-retained radioactivity was detected by liquid scintillation counting. Ki values were calculated using Excel-Fit (Microsoft) and are the means of two determinations.

Row | Structure (SMILES) | Ki
1 | COC(=O)c1ccc(-n2cnc(-c3c(-c4ccccc4)noc3C(F)(F)F)c2)nc1 [Example 17, 6-[4-(3-Phenyl-5-trifluoromethyl-isoxazol-4-yl)-imidazol-1-yl]-nicotinic acid methyl ester] | 31.5 nM
2 | O=C(NC1CCOCC1)c1ccc(-n2cnc(-c3c(-c4ccccc4)noc3C(F)(F)F)c2)cc1 [Example 13, 4-[4-(3-Phenyl-5-trifluoromethyl-isoxazol-4-yl)-imidazol-1-yl]-N-(tetrahydro-pyran-4-yl)-benzamide] | 41.2 nM
3 | O=C(NCC(F)(F)F)c1ccc(-n2cnc(-c3c(-c4ccccc4)noc3C(F)(F)F)c2)cc1 [Example 11, 4-[4-(3-Phenyl-5-trifluoromethyl-isoxazol-4-yl)-imidazol-1-yl]-N-(2,2,2-trifluoro-ethyl)-benzamide] | 17.6 nM
4 | Cc1ccc(-n2cnc(-c3c(-c4ccccc4)noc3C(F)(F)F)c2)cc1 [Example 8, 3-Phenyl-4-(1-p-tolyl-1H-imidazol-4-yl)-5-trifluoromethyl-isoxazole] | 84.2 nM
5 | FC(F)(F)c1onc(-c2ccccc2)c1-c1cn(-c2ccccc2)cn1 [Example 1, 3-Phenyl-4-(1-phenyl-1H-imidazol-4-yl)-5-trifluoromethyl-isoxazole] | 53.2 nM
6 | FC(F)(F)c1ccc(-n2cnc(-c3c(-c4ccccc4)noc3C(F)(F)F)c2)cc1 [Example 4, 3-Phenyl-5-trifluoromethyl-4-[1-(4-trifluoromethyl-phenyl)-1H-imidazol-4-yl]-isoxazole] | 39.7 nM
7 | O=C(NC1CC1)c1ccc(-n2cnc(-c3c(-c4ccccc4)noc3C(F)(F)F)c2)cc1 [Example 12, N-Cyclopropyl-4-[4-(3-phenyl-5-trifluoromethyl-isoxazol-4-yl)-imidazol-1-yl]-benzamide] | 11.7 nM
8 | CC(=O)c1ccc(-n2cnc(-c3c(-c4ccccc4)noc3C(F)(F)F)c2)cc1 [Example 3, 1-{4-[4-(3-Phenyl-5-trifluoromethyl-isoxazol-4-yl)-imidazol-1-yl]-phenyl}-ethanone] | 12.5 nM
9 | O=[N+]([O-])c1ccc(-n2cnc(-c3c(-c4ccccc4)noc3C(F)(F)F)c2)cc1 [Example 7, 4-[1-(4-Nitro-phenyl)-1H-imidazol-4-yl]-3-phenyl-5-trifluoromethyl-isoxazole] | 19.7 nM
10 | N#Cc1ccc(-n2cnc(-c3c(-c4ccccc4)noc3C(F)(F)F)c2)cc1 [Example 5, 4-[4-(3-Phenyl-5-trifluoromethyl-isoxazol-4-yl)-imidazol-1-yl]-benzonitrile] | 41.2 nM
11 | O=C(NCC1CC1)c1ccc(-n2cnc(-c3c(-c4ccccc4)noc3C(F)(F)F)c2)cc1 [Example 10, N-Cyclopropylmethyl-4-[4-(3-phenyl-5-trifluoromethyl-isoxazol-4-yl)-imidazol-1-yl]-benzamide] | 23.6 nM
12 | COc1ccc(-n2cnc(-c3c(-c4ccccc4)noc3C(F)(F)F)c2)cc1 [Example 9, 4-[1-(4-Methoxy-phenyl)-1H-imidazol-4-yl]-3-phenyl-5-trifluoromethyl-isoxazole] | 46.1 nM

The remaining lines, values ahead:

Row | Ki | Structure (SMILES)
13 | 28.4 nM | CC(C)(O)c1ccc(-n2cnc(-c3c(-c4ccc(F)cc4)noc3C(F)(F)F)c2)cc1 [Example 29, 2-(4-{4-[3-(4-Fluoro-phenyl)-5-trifluoromethyl-isoxazol-4-yl]-imidazol-1-yl}-phenyl)-propan-2-ol]
14 | 17.2 nM | CC(=O)c1ccc(-n2cnc(-c3c(-c4ccc(F)cc4)noc3C(F)(F)F)c2)nc1 [Example 36, 1-(6-{4-[3-(4-Fluoro-phenyl)-5-trifluoromethyl-isoxazol-4-yl]-imidazol-1-yl}-pyridin-3-yl)-ethanone]
15 | 17.1 nM | NC(=O)c1ccc(-n2cnc(-c3c(-c4ccc(F)cc4)noc3C(F)(F)F)c2)cc1 [Example 31, 4-{4-[3-(4-Fluoro-phenyl)-5-trifluoromethyl-isoxazol-4-yl]-imidazol-1-yl}-benzamide]
16 | 87.4 nM | O=C(c1ccc(-n2cnc(-c3c(-c4ccc(F)cc4)noc3C(F)(F)F)c2)cc1)N1CCS(=O)(=O)CC1 [Example 35, (1,1-Dioxo-1λ6-thiomorpholin-4-yl)-(4-{4-[3-(4-fluoro-phenyl)-5-trifluoromethyl-isoxazol-4-yl]-imidazol-1-yl}-phenyl)-methanone]
17 | 91.1 nM | O=C(c1ccc(-n2cnc(-c3c(-c4ccccc4)noc3C(F)(F)F)c2)nc1)N1CCSCC1 [Example 23, {6-[4-(3-Phenyl-5-trifluoromethyl-isoxazol-4-yl)-imidazol-1-yl]-pyridin-3-yl}-thiomorpholin-4-yl-methanone]
18 | 8.5 nM | O=C(NC1CCOCC1)c1ccc(-n2cnc(-c3c(-c4ccc(Cl)cc4)noc3C(F)(F)F)c2)nc1 [Example 51, 6-{4-[3-(4-Chloro-phenyl)-5-trifluoromethyl-isoxazol-4-yl]-imidazol-1-yl}-N-(tetrahydro-pyran-4-yl)-nicotinamide]
19 | 38.2 nM | CC(C)(O)c1ccc(-n2cnc(-c3c(-c4ccc(F)cc4)noc3C(F)(F)F)c2)nc1 [Example 43, 2-(6-{4-[3-(4-Fluoro-phenyl)-5-trifluoromethyl-isoxazol-4-yl]-imidazol-1-yl}-pyridin-3-yl)-propan-2-ol]
20 | 73 nM | FC(F)(F)c1onc(-c2ccccc2)c1-c1cn(-c2ncccn2)cn1 [Example 54, 2-[4-(3-Phenyl-5-trifluoromethyl-isoxazol-4-yl)-imidazol-1-yl]-pyrimidine]
21 | 4.9 nM | O=C(NCC(F)(F)F)c1ccc(-n2cnc(-c3c(-c4ccc(F)cc4)noc3C(F)(F)F)c2)nc1 [Example 39, 6-{4-[3-(4-Fluoro-phenyl)-5-trifluoromethyl-isoxazol-4-yl]-imidazol-1-yl}-N-(2,2,2-trifluoro-ethyl)-nicotinamide]
22 | 76.7 nM | O=C(O)c1ccc(-n2cnc(-c3c(-c4ccc(F)cc4)noc3C(F)(F)F)c2)cc1 [Example 28, 4-{4-[3-(4-Fluoro-phenyl)-5-trifluoromethyl-isoxazol-4-yl]-imidazol-1-yl}-benzoic acid]
23 | 32.3 nM | N#Cc1ccc(-n2cnc(-c3c(-c4ccc(F)cc4)noc3C(F)(F)F)c2)nc1 [Example 37, 6-{4-[3-(4-Fluoro-phenyl)-5-trifluoromethyl-isoxazol-4-yl]-imidazol-1-yl}-nicotinonitrile]
24 | 14.1 nM | O=C(NC1CC1)c1cnc(-n2cnc(-c3c(-c4ccccc4)noc3C(F)(F)F)c2)cn1 [Example 55, 5-[4-(3-Phenyl-5-trifluoromethyl-isoxazol-4-yl)-imidazol-1-yl]-pyrazine-2-carboxylic acid cyclopropylamide]
25 | 22.1 nM | COC(=O)c1ccc(-n2cnc(-c3c(-c4ccc(F)cc4)noc3C(F)(F)F)c2)cc1 [Example 27, 4-{4-[3-(4-Fluoro-phenyl)-5-trifluoromethyl-isoxazol-4-yl]-imidazol-1-yl}-benzoic acid methyl ester]
26 | 58.6 nM | O=[N+]([O-])c1ccc(-n2cnc(-c3c(-c4ccc(Cl)cc4)noc3C(F)(F)F)c2)cc1 [Example 47, 3-(4-Chloro-phenyl)-4-[1-(4-nitro-phenyl)-1H-imidazol-4-yl]-5-trifluoromethyl-isoxazole]
27 | 4.1 nM | O=C(NC1CC1)c1ccc(-n2cnc(-c3c(-c4ccc(F)cc4)noc3C(F)(F)F)c2)nc1 [Example 40, N-Cyclopropyl-6-{4-[3-(4-fluoro-phenyl)-5-trifluoromethyl-isoxazol-4-yl]-imidazol-1-yl}-nicotinamide]
